One molecule from patent publication US8735622B2, “Histone demethylase inhibitors and methods for using the same” (The Regents of the University of Colorado, a body corporate, priority 2011, dated 2014) can be followed below.

Assay [1] deals with prolyl hydroxylases (PHDs). The assay can be described thus: Cellular HIF-1α level (prolyl hydroxylase specificity) in MCF7 cells. It is filed as cell-based, human. The following applies: 24 hours, methylstat up to 15 μM, DFO 150 μM, DMOG 1 and 2 mM. An excerpt:
(§1) To assess the specificity of methylstat in vivo, another iron(II)- and α-ketoglutarate-dependent dioxygenases, prolyl hydroxylases (PHDs), was examined. PHDs have been reported to regulate normoxic inactivation of hypoxia-inducible factors (HIFs) by hydroxylating specific prolyl residues of HIFs. […] DMOG and DFO have been used to mimic hypoxia conditions by inhibiting PHDs in vivo. […] Similar results were also observed in HeLa cells (see FIG. 7).
(§2) Total lysates of cells were generated from the cells lysed in CelLytic M Cell Lysis (Sigma) with protease inhibitor cocktail (Sigma), mixed with 2×LSB buffer (100 mM Tris-HCl pH 6.8, 200 mM DTT, 4% SDS, 20% glycerol and 0.2% bromophenol blue) and boiled for 5 min before SDS-PAGE. BCA assay (Thermo) was applied for protein qualification.

The next assay concerns the target T1, JMJD2A (Homo sapiens, UniProt O75164).
T1 construct: Recombinant protein preparation of GASC1(1-420), JMJD2A (1-420) and LSD1 (full-length); made in house; host or cells: Escherichia coli BL-21
T1 sequence (O75164 1-420): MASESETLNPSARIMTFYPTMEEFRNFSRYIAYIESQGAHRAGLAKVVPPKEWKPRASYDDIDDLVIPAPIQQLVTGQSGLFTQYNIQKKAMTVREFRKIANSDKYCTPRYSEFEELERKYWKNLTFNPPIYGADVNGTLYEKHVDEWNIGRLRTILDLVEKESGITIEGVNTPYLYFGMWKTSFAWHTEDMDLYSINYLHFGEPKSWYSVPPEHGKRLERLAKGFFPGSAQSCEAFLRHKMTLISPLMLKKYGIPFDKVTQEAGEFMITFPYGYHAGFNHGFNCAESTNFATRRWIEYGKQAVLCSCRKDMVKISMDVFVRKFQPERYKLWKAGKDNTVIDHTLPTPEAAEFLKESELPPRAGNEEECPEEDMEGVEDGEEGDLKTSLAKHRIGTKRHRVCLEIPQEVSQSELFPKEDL
Description: JMJD2A enzyme activity assay (DELFIA). The following applies: in vitro. It is filed as biochemical. The protocol:
In order to evaluate the inhibitory activity of 1 in vitro, a GST-fusion protein of the catalytic N-terminus of human GASC1 (gene amplified in squamous cell carcinoma 1) corresponding to amino acid 1-420 was cloned and purified. […] To evaluate the enzyme specificity of 1, the activity of 1 was examined against several other related enzymes in vitro.
The enzyme activity assays for GASC1 and JMJD2A were established on the DELFIA platform. DELFIA assays were performed in white, opaque 384-well plates coated with Streptavidin (Perkin Elmer). GST-GASC1(1-420) was diluted to 200 ng/well in 20 mM Tris HCl pH 8.5/2 mM glutathione and added in a volume of 20 μL. Blank wells received Tris/glutathione buffer only. Test compounds were diluted in DMSO and […] was pinned into the wells. Blank and control wells received only compound buffer. The reactions were initiated by the addition of 500 nM biotin-H3(1-20)K9me3 substrate, 10 μM FeSO4, 100 μM alpha-ketoglutarate in a volume of 20 μL, and incubated at room temperature for 60 minutes. The plates were washed 3 times with 100 μL of Wash Buffer (50 mM Tris pH 7.4, 150 mM NaCl, 0.05% Tween 20, 0.2% BSA). […] Time resolved fluorescence was measured after 45 minutes on an Envision Microplate Imager (Perkin Elmer Life Sciences) with 400 μs delay, excitation at 360 nm, and emission at 620 nm.

Assay [2] deals with histone methylation marks in KYSE150 cells. Description: Western blotting of histone methylation marks in KYSE150 cells. The following applies: KYSE150 cells, 5, 10, 15 μM, 48 hours. In kind it is cell-based, human. As for the experimental part: Next, the cellular effects of methylstat were evaluated on a variety of histone methylation marks in KYSE150 cells. DMOG and DFO were used as positive controls, since they are known cell-active inhibitors of iron (II)- and α-ketoglutarate-dependent dioxygenases.
as §2
Histone extraction was generated from the cells lysed in Triton Extraction Buffer (TEB: PBS containing 0.5% Triton X 100 (v/v), 2 mM phenylmethylsulfonyl fluoride (PMSF), 0.02% (w/v) NaN3) at the density of 10^7 cells/mL. 0.2 N HCl was used to extract histone over night at 4° C.

Assay [3] concerns H3K4me3 and H3K9me3 levels in KYSE150 cells. Description: Quantitative immunostaining assay of H3K4me3 and H3K9me3 in KYSE150 cells. It is filed as cell-based, human. The following applies: for EC50: Homo sapiens, KYSE-150, 48 hours, immunostaining image quantification. As for the experimental part:
To quantify the cellular activity of methylstat, a quantitative image-based assay was used. […] The cellular effects of methylstat were also cell type-specific.
For quantified immunostaining experiments, KYSE150 or MCF7 cells were seeded in a 96-well plate at 10,000 cells per well and incubated at 37° C. for 24 hours. The medium was replaced and methylstat in DMSO was added at the concentration as indicated. After incubation for another 48 hours, immunostaining procedure was performed as described above using anti-H3K9me3 or anti-H3K4me3 primary antibody. Fluorescent images of cells were acquired by a Nikon Eclipse 90i fluorescence microscope and analyzed using the Cell Scoring analysis module of MetaMorph 7.0 software.

The test system of a further assay is HDACs. Description: Histone deacetylases (HDACs) enzyme inhibition assay (Fluor de Lys). In kind it is biochemical. The following applies: in vitro. The protocol: The enzyme activity assay for HDAC was carried out using Fluor de Lys Fluorescent Assay System (BML-AK500, Enzo Life Sciences Inc, NY USA). The assay was performed as the manufactory guide in white 384-well plates. Time resolved fluorescence was measured on a Beckman Coulter DTX 880 plate reader with 250 ms delay, excitation at 360 nm, and emission at 530 nm.

Assay [4] has as its system prolyl hydroxylases (PHDs). Description: Cellular HIF-1α level (prolyl hydroxylase specificity) in HeLa cells. It is filed as cell-based, human. Particulars: 24 hours, methylstat 5, 10, 15 μM.
Source text: as §1, §2

What is called EC50 is the midpoint of the concentration-response curve.

Structures are written as SMILES. “Also recorded” adds a separate entry of the source. Read-outs that look alike come from different tables or passages of the source.

As for `COC(=O)/C=C/C(=O)N(O)CCCCNCc1ccc(COC(=O)Nc2cccc3ccccc23)cc1` [methylstat], the “cellular HIF-1α levels / prolyl hydroxylase inhibition” value in assay [1] is recorded as “did not affect the cellular HIF-1α levels; also recorded: did not significantly inhibit prolyl hydroxylases”; in assay [4], “did not significantly inhibit prolyl hydroxylases”. Also, the “inhibition of enzymatic activity of JMJD2A” value on JMJD2A is recorded as “did not significantly inhibit”. Also, in assay [2], the “hypermethylation of histone proteins (Western blot)” value is “induced hypermethylation of lysine residues; also recorded: induced hypermethylations of histone proteins in a concentration-dependent manner”. The “increase of the H3K9me3 mark” value in assay [3] stood at 10.8 fold. Also, the EC50 turned out to be 10.3 µM in assay [3] (read-out: EC50 for H3K4me3) and 8.6 µM in assay [3] (read-out: EC50 for H3K9me3). Also, the “inhibition of histone deacetylases (HDACs)” value with HDACs is given as “did not significantly inhibit”.
